Assay results as given in patent publication US20200397795A1, “PROPHYLACTIC TREATMENT OF VENOUS THROMBOEMBOLISM” (JANSSEN PHARMACEUTICALS, INC., priority 2019, published 2020).
Where “and” joins values, the source holds several entries; their conditions need not be identical. Equal entries are not always repeated.

Tests used:
[1] = tested on: bleeding events in patients hospitalized for acute medical illness; assay: MAGELLAN (Study 1): safety, bleeding events and adverse events; type: in vivo, human; details: for Fatal bleeding events, number: Day 1 to 10; for Treatment-emergent fatal bleeding events, number: Day 1 to 35; for Pulmonary embolism confirmed (deaths), number: entire study duration; for Investigator-reported deaths, incidence / VTE-related deaths, incidence: entire study duration (Day 1 to 90); for Bleeding events that required blood transfusions of 2 units / Bleeding events that resulted in a fall of Hb to ≥2 g/dL / Investigator-reported TEAEs leading to permanent discontinuation of study drug: in vivo
From the text: The safety component of Criteria for Evaluation was the primary safety endpoint of incidence of the composite of treatment-emergent major bleeding events and non-major clinically relevant bleeding events observed during treatment and not later than 2 days after the last intake of double-blind study drug.
The primary safety outcome of the study was the treatment-emergent clinically relevant bleeding events, which were a composite of treatment-emergent adjudicated major bleeding events and clinically relevant non-major bleeding events.
The safety analysis was performed on 7998 randomized subjects who received at least one dose of study drug, rivaroxaban (3997 subjects) or enoxaparin (4001 subjects).
The primary safety outcome of the study was the assessment of clinically relevant bleeding events, which are a composite of treatment-emergent adjudicated major bleeding events and clinically relevant non-major bleeding events.

[2] = tested on: coagulation parameters (PT, PiCT, D-dimer); assay: MAGELLAN (Study 1): pharmacodynamics (PT, PiCT, D-dimer); type: in vivo, human; details: for Prothrombin time, overall median: full profile sampling
Procedure: (§1) Full profile pharmacodynamics (PD) sampling was performed in parallel to the PK samples on Day 1 and Day 10. In addition, sparse PD sampling was performed in nearly all subjects at 5 predefined time points: prior to study drug administration, around the time of peak plasma concentrations (2 to 4 hours after intake of the rivaroxaban tablet or rivaroxaban placebo tablet) on the first, 10th and 35th day of study drug administration, and before study drug administration on Day 10.
Coagulation parameters assessed included international normalized ratio (INR), prothrombin time (PT), prothrombinase-induced clotting time (PiCT), and the fibrin degradation product, D-dimer. Pharmacodynamic parameters assessed included changes to baseline of the maximal effect (Emax) and changes to baseline at trough (Etrough).
as §1, with “Two sets of samples were evaluated for PD parameters: Full” for “Full”, “PD” for “pharmacodynamics (PD)”, “sampling” for “sampling was performed”, “approximately” for “around”

[3] = tested on: bleeding events in MAGELLAN subpopulation; assay: Retrospective analysis of MAGELLAN subpopulation: safety (bleeding); type: in vivo
From the text: (§2) Using key exclusion criteria from Study 2: MARINER to exclude subjects with a higher risk of bleeding, a subpopulation of Study 1: MAGELLAN was retrospectively analyzed to re-evaluate benefit-risk in this subpopulation, which included efficacy endpoints of symptomatic VTE and VTE-related death and safety endpoints of major bleeding events. The key exclusion criteria from Study 2: MARINER that were retrospectively applied to the Study 1: MAGELLAN population for this analysis included: active gastroduodenal ulcer within 3 months of randomization/currently symptomatic; any bleeding within 3 months prior to randomization or during index hospitalization; active cancer at randomization; medical history of severe bronchiectasis/pulmonary cavitation; or dual antiplatelet therapy at baseline. Subjects that met one or more of these criteria prior to or at randomization using standardized MedDRA queries or preferred terms of MedDRA version 13.1 based on data entered into the case report forms in the original MAGELLAN database were excluded from the subpopulation analysis.
(§3) The MAGELLAN study (Study 1) randomized 8,101 patients from 562 sites in 52 countries and the safety population of patients that received at least one dose of study medication was 7,998 patients. The five key risk factors for major bleeding events in MAGELLAN were identified using study data forms as described herein. With the retrospective use of these risk factors, 1,551 patients were excluded from MAGELLAN and the remaining 6,447 patients, approximately 80% of MAGELLAN, represented the subpopulation. Patients in both treatment groups had no differences in baseline characteristics, and had similar medical histories, with at least 99% of patients having complete immobility or decreased mobility and median total number of days in hospital of 10.

[4] = tested on: venous thromboembolism (VTE) in MAGELLAN subpopulation; assay: Retrospective analysis of MAGELLAN subpopulation (five bleeding risk factors excluded): efficacy; type: in vivo, human; details: for Primary efficacy endpoint outcome, incidence: Day 10, per-protocol analysis set; for Asymptomatic lower extremity proximal DVT, incidence / VTE-related death, incidence: Day 35
From the text: as §2, §3

[5] = rivaroxaban-enoxaparin phase (Day 1 to 10)
[6] = rivaroxaban-enoxaparin/placebo phase (Day 1 to 35)
[7] = rivaroxaban-placebo phase (Day 10 to 35)
[8] = acute respiratory insufficiency, Baseline
[9] = acute respiratory insufficiency, Day 1 peak
[10] = acute respiratory insufficiency, Day 10 peak
[11] = acute respiratory insufficiency, Day 10 trough
[12] = entire study population, Baseline
[13] = entire study population, Day 1 peak
[14] = entire study population, Day 10 peak
[15] = entire study population, Day 35 peak
[16] = post-discharge phase, entire population and subpopulation

Compound: O=C(NC[C@H]1CN(c2ccc(N3CCOCC3=O)cc2)C(=O)O1)c1ccc(Cl)s1 [Rivaroxaban, 5-chloro-N-({(5S)-2-oxo-3-[4-(3-oxo-4-morpholinyl)phenyl]-1,3,oxazolidin-5-yl}methyl)-2-thiophenecarboxamide]
- Fatal bleeding events, number ([1]; entire population): 5 cases
- Treatment-emergent fatal bleeding events, number [1]: 7 subjects
- Major bleeding events, incidence ([1]; Day 1 to Day 10): 0.6%
- Intracranial bleeding site (critical site bleeding), incidence ([1]; Day 1 to Day 35): 0.1%
- Investigator-reported SAEs, incidence ([1]; Day 1 to Day 35): 2.0%
- Investigator-reported TEAEs, incidence ([1]; Day 1 to Day 35): 12.5%
- Investigator-reported drug-related TEAEs, incidence ([1]; Day 1 to Day 35): 6.9%
- Major bleeding events, incidence ([1]; Day 1 to Day 35): 1.1%
- Major bleeding events, incidence ([1]; Day 10 to Day 35): 0.5%
- Clinically relevant non-major bleeding events, incidence ([1]; all phases of the study): 4.0%
- Major bleeding events, incidence ([1]; all phases of the study): 1.6%
- Minimal bleeding events, incidence ([1]; all phases of the study): 9.6%
- Major bleeding, RR vs enoxaparin-placebo ([1]; entire MAGELLAN population, through Day 35): 2.87
- Fatal bleeds, incidence ([1]; entire population, Day 10): 0.1%
- Major bleeding, relative risk ([1]; entire population, Day 10): 2.18
- Fatal bleeds, incidence ([1]; entire population, Day 35): 0.2%
- Pulmonary embolism confirmed (deaths), number [1]: 2 subjects
- Investigator-reported deaths, incidence [1]: 7.0%
- VTE-related deaths, incidence [1]: 1.0%
- Major bleeding events, incidence ([1]; follow-up phase): 0.6%
- Bleeding events that required blood transfusions of 2 units [1]: 0.6%
- Bleeding events that resulted in a fall of Hb to ≥2 g/dL [1]: 0.8%
- Investigator-reported TEAEs leading to permanent discontinuation of study drug [1]: 3.1%
- Clinically relevant bleeding events, incidence [1, 5]: 2.8%
- Relative risk, clinically relevant bleeding [1, 5]: 2.272
- Clinically relevant bleeding events, incidence [1, 6]: 4.1%
- Relative risk, clinically relevant bleeding [1, 6]: 2.46 and 2.455
- Clinically relevant bleeding events, incidence [1, 7]: 1.4%
- Relative risk, clinically relevant bleeding [1, 7]: 2.958
- Mean peak concentration expressed in IU/mL (PiCT two step) ([2]; Day 1): below the lower limit of quantitation
- Mean peak concentration of rivaroxaban (PiCT one step) ([2]; Day 1): 198.8 µg/L
- Mean peak concentration expressed in IU/mL (PiCT two step) ([2]; Day 10): below the lower limit of quantitation
- Mean peak concentration of rivaroxaban (PiCT one step) ([2]; Day 10): 202.78 µg/L
- Mean peak concentration of rivaroxaban (PiCT one step) ([2]; Day 35): 168 µg/L
- D-dimer, median ([2]; acute infectious disease, Baseline): 1.76 µg/mL
- D-dimer, median ([2]; acute infectious disease, Day 1 peak): 2.07 µg/mL
- D-dimer, median ([2]; acute infectious disease, Day 10 peak): 2.13 µg/mL
- D-dimer, median ([2]; acute infectious disease, Day 10 trough): 1.74 µg/mL
- D-dimer, median [2, 8]: 1.48 µg/mL
- D-dimer, median [2, 9]: 1.44 µg/mL
- D-dimer, median [2, 10]: 1.37 µg/mL
- D-dimer, median [2, 11]: 1.18 µg/mL
- D-dimer, median [2, 12]: 0.94 µg/mL
- D-dimer, median [2, 13]: 0.90 µg/mL
- D-dimer, median [2, 14]: 0.64 µg/mL
- D-dimer, median [2, 15]: 0.45 µg/mL
- Prothrombin time, overall median ([2]; peak Day 1): 23.5 s
- Prothrombin time, overall median ([2]; peak Day 10): 23.2 s
- Change in clotting time, PiCT two step ([2]; sparse sampling): No change
- Prothrombin time, median ([2]; sparse sampling, Baseline): 14.3 s
- Prolongation of PiCT one step assay ([2]; sparse sampling, Day 1): 14.6 s
- Prothrombin time, median ([2]; sparse sampling, Day 1 peak): 19.3 s
- Prolongation of PiCT one step assay ([2]; sparse sampling, Day 10): 13.1 s
- Prothrombin time, median ([2]; sparse sampling, Day 10 peak): 19.3 s
- Prothrombin time, median ([2]; sparse sampling, Day 35 peak): 18.6 s
- Major bleeding, relative risk ([3]; human, in vivo, 10 day): 1.19
- Clinically relevant bleeding (major and NMCR), incidence ([3]; human, in vivo, 35 day): 3.5%
- Clinically relevant bleeding, RR vs enoxaparin ([3]; human, in vivo, 35 day): 2.35
- Major bleeding, RR vs enoxaparin-placebo ([3]; human, in vivo, 35 day): 1.48
- Major bleeding, incidence ([3]; human, in vivo, 35 day): 0.68%
- Fatal bleeds, number [3, 16]: 2
- Fatal bleeds, incidence ([3]; subpopulation, Day 10): less than 0.1%
- Fatal bleeds, number ([3]; subpopulation, Day 10): 1
- Fatal bleeds, incidence ([3]; subpopulation, Day 35): less than 0.1%
- Primary efficacy endpoint, RR vs enoxaparin ([4]; Day 10, per-protocol): 0.820
- Primary efficacy endpoint outcome, incidence [4]: 2.4%
- Asymptomatic lower extremity proximal DVT, incidence [4]: 3.0%
- VTE-related death, incidence [4]: 0.6%
- Primary efficacy outcome, RR vs enoxaparin ([4]; Day 35, mITT): 0.68
- Primary efficacy outcome, incidence ([4]; Day 35, mITT): 3.9%

Compound: Enoxaparin
- Fatal bleeding events, number ([1]; entire population): 1 cases
- Treatment-emergent fatal bleeding events, number [1]: 1 subjects
- Major bleeding events, incidence ([1]; Day 1 to Day 10): 0.3%
- Investigator-reported SAEs, incidence ([1]; Day 1 to Day 35): 0.8%
- Investigator-reported TEAEs, incidence ([1]; Day 1 to Day 35): 8.5%
- Investigator-reported drug-related TEAEs, incidence ([1]; Day 1 to Day 35): 4.2%
- Major bleeding events, incidence ([1]; Day 1 to Day 35): 0.4%
- Pulmonary bleeding site (critical site bleeding), incidence ([1]; Day 1 to Day 35): 0%
- Retroperitoneal bleeding site (critical site bleeding), incidence ([1]; Day 1 to Day 35): 0%
- Clinically relevant non-major bleeding events, incidence ([1]; all phases of the study): 2.1%
- Major bleeding events, incidence ([1]; all phases of the study): 0.9%
- Minimal bleeding events, incidence ([1]; all phases of the study): 8.2%
- Pulmonary embolism confirmed (deaths), number [1]: 1 subjects
- Investigator-reported deaths, incidence [1]: 6.5%
- VTE-related deaths, incidence [1]: 1.2%
- Major bleeding events, incidence ([1]; follow-up phase): 0.6%
- Bleeding events that required blood transfusions of 2 units [1]: 0.2%
- Bleeding events that resulted in a fall of Hb to ≥2 g/dL [1]: 0.2%
- Investigator-reported TEAEs leading to permanent discontinuation of study drug [1]: 1.5%
- Clinically relevant bleeding events, incidence [1, 5]: 1.2%
- Clinically relevant bleeding events, incidence [1, 6]: 1.7%
- Clinically relevant bleeding events, incidence [1, 7]: 0.5%
- Baseline value expressed in IU/mL (PiCT two step) ([2]; Day 1): below the lower limit of quantitation
- Mean peak concentration expressed in IU/mL (PiCT two step) ([2]; Day 1): 0.32 IU/mL
- Mean peak concentration expressed in IU/mL (PiCT two step) ([2]; Day 10): 0.31 IU/mL
- Trough concentration expressed in IU/mL (PiCT two step) ([2]; Day 10): 0.11 IU/mL
- D-dimer, median [2, 8]: 0.57 µg/mL
- D-dimer, median [2, 9]: 0.66 µg/mL
- D-dimer, median [2, 10]: 0.70 µg/mL
- D-dimer, median [2, 11]: 0.46 µg/mL
- D-dimer, median [2, 12]: 0.95 µg/mL
- D-dimer, median [2, 13]: 0.94 µg/mL
- D-dimer, median [2, 14]: 0.66 µg/mL
- D-dimer, median [2, 15]: 0.67 µg/mL
- Influence on prothrombin time ([2]; in vivo): no influence
- Change in clotting time, PiCT one step ([2]; sparse sampling): No change
- Prothrombin time, median ([2]; sparse sampling, Baseline): 14.4 s
- Prolongation of PiCT two step assay ([2]; sparse sampling, Day 1): 23.6 s
- Prothrombin time, median ([2]; sparse sampling, Day 1 peak): 14.8 s
- Prolongation of PiCT two step assay ([2]; sparse sampling, Day 10): 19.8 s
- Prothrombin time, median ([2]; sparse sampling, Day 10 peak): 14.2 s
- Prothrombin time, median ([2]; sparse sampling, Day 35 peak): 13.8 s
- Fatal bleeds, number [3, 16]: 0
- Fatal bleeds, number ([3]; subpopulation, Day 10): 1
- Clinically relevant bleeding (major and NMCR), incidence ([3]; subpopulation, Day 35): 1.5%
- Major bleeding, incidence ([3]; subpopulation, through Day 35): 0.47%
- Primary efficacy endpoint outcome, incidence [4]: 3.0%
- Asymptomatic lower extremity proximal DVT, incidence [4]: 4.4%
- VTE-related death, incidence [4]: 1.0%
- Primary efficacy outcome, incidence ([4]; Day 35, mITT): 5.7%
